Test results: ChEMBL document CHEMBL1134755, “B-ring substituted 5,7-dihydroxyflavonols with high-affinity binding to P-glycoprotein responsible for cell multidrug resistance” (Bioorg Med Chem Lett, 2001)

Columns and labels:
[1] = target: T1, ATP-dependent translocase ABCB1 (Mus musculus, UniProt P21447); assay: Binding affinity to nucleotide-binding domain (NBD2) of P-Glycoprotein
[2] = target: T1, ATP-dependent translocase ABCB1; assay: Percent of maximal quenching fluorescence for binding analysis to nucleotide-binding domain (NBD2) of P-Glycoprotein was determined

T1 sequence (P21447 whole entry, the tested form may be a part): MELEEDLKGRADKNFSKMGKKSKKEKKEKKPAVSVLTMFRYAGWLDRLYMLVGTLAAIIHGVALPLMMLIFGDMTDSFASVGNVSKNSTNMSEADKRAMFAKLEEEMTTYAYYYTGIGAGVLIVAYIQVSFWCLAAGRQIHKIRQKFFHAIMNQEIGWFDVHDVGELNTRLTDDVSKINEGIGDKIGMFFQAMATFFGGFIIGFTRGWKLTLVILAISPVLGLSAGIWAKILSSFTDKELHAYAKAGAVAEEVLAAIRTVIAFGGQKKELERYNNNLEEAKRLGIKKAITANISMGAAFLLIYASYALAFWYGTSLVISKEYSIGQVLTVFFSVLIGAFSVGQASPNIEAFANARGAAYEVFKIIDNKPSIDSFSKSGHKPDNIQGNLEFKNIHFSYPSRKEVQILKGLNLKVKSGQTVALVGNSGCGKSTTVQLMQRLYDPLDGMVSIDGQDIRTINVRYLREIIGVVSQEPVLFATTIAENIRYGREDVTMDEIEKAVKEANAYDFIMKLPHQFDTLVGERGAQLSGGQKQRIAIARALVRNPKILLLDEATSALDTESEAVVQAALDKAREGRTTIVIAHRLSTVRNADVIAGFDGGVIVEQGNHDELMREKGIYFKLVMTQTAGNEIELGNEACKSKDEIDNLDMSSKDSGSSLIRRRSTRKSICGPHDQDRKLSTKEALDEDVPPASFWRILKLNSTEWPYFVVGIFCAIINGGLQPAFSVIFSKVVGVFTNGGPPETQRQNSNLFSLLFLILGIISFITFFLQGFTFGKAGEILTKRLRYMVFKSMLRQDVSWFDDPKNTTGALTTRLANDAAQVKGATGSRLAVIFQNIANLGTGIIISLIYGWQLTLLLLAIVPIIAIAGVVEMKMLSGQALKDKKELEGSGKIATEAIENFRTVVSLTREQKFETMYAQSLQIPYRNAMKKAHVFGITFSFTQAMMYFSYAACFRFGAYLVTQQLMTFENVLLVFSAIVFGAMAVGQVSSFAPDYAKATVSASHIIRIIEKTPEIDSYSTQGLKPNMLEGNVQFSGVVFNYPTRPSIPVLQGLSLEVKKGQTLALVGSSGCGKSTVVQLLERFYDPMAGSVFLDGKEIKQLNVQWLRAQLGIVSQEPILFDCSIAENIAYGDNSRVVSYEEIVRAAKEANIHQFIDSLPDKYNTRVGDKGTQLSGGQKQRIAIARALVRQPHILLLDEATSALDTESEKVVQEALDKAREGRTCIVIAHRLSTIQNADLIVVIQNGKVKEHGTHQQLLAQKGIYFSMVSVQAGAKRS

Kd [1] [µM] | Delta Fmax [2] [%] | Structure (SMILES)
0.057 | 62.1 | CCCCCCCCc1ccc(-c2oc3cc(O)cc(O)c3c(=O)c2O)cc1
2 | 84.6 | O=c1c(O)c(-c2ccc(C(c3ccccc3)c3ccccc3)cc2)oc2cc(O)cc(O)c12
4 | 85.3 | O=c1c(O)c(-c2ccc(Cl)cc2Cl)oc2cc(O)cc(O)c12
1.06 | 95.5 | O=c1c(O)c(-c2ccc(I)cc2)oc2cc(O)cc(O)c12
5.9 | 95 | O=c1c(O)c(-c2ccccc2)oc2cc(O)cc(O)c12 [GALANGIN]
6.8 | 91.6 | O=c1c(O)c(-c2ccc(F)cc2)oc2cc(O)cc(O)c12
5 | 96.7 | COc1ccc(-c2oc3cc(O)cc(O)c3c(=O)c2O)cc1 [KAEMPFERIDE]
6.7 | 97.6 | O=c1c(O)c(-c2ccc(O)cc2)oc2cc(O)cc(O)c12 [KAEMPFEROL]
